Assay results published in ChEMBL document CHEMBL5303304, “EUbOPEN Chemogenomics Library - IncuCyte” (2023).

Experiments:
Type in all cases: toxicity, cell-based
HEK-293T = assay: Incucyte cell viability with HEK293T; details: human, 10 µM, compound concentration 10 uM
U2OS = assay: Incucyte cell viability with U2OS; details: human, 10 µM, compound concentration 10 uM
Fibroblast = assay: Incucyte cell viability with human fibroblast; details: 10 µM, compound concentration 10 uM
Also: unitless GR value; below 1 slowed growth and below 0 cell loss.

Structure (SMILES): COc1cc2ncnc(Nc3cccc(O)c3)c2cc1OC
- Growth Rate (HEK-293T; 6 h, replicate number 1): 0.14
- Growth Rate (HEK-293T; 6 h, replicate number 2): 0.13
- Growth Rate (HEK-293T; 12 h, replicate number 1): 0.56
- Growth Rate (HEK-293T; 12 h, replicate number 2): 0.71
- Growth Rate (HEK-293T; 18 h, replicate number 1): 0.96
- Growth Rate (HEK-293T; 18 h, replicate number 2): 0.75
- Growth Rate (HEK-293T; 24 h, replicate number 2): 0.77
- Growth Rate (U2OS; 0 h, replicate number 1): -0.82
- Growth Rate (U2OS; 6 h, replicate number 1): 0.98
- Growth Rate (U2OS; 6 h, replicate number 2): 0.55
- Growth Rate (U2OS; 12 h, replicate number 1): 0.83
- Growth Rate (U2OS; 12 h, replicate number 2): 0.75
- Growth Rate (U2OS; 18 h, replicate number 1): 0.88
- Growth Rate (U2OS; 18 h, replicate number 2): 0.69
- Growth Rate (U2OS; 24 h, replicate number 2): 0.84
- Growth Rate (Fibroblast; 0 h, replicate number 1): -1
- Growth Rate (Fibroblast; 0 h, replicate number 2): 0.07

Structure (SMILES): CC(C)c1cnc(NC(=O)Cc2ccccc2)s1
- Growth Rate (HEK-293T; 0 h, replicate number 2): 1
- Growth Rate (HEK-293T; 6 h, replicate number 1): 0.76
- Growth Rate (HEK-293T; 6 h, replicate number 2): 0.51
- Growth Rate (HEK-293T; 12 h, replicate number 1): 0.86
- Growth Rate (HEK-293T; 12 h, replicate number 2): 0.69
- Growth Rate (HEK-293T; 18 h, replicate number 1): 0.8
- Growth Rate (HEK-293T; 18 h, replicate number 2): 0.68
- Growth Rate (HEK-293T; 24 h, replicate number 1): 0.73
- Growth Rate (HEK-293T; 24 h, replicate number 2): 0.69
- Growth Rate (U2OS; 0 h, replicate number 2): 0.72
- Growth Rate (U2OS; 6 h, replicate number 1): 0.54
- Growth Rate (U2OS; 12 h, replicate number 1): 0.87
- Growth Rate (U2OS; 12 h, replicate number 2): 0.72
- Growth Rate (U2OS; 18 h, replicate number 1): 0.77
- Growth Rate (U2OS; 18 h, replicate number 2): 0.97
- Growth Rate (U2OS; 24 h, replicate number 1): 0.89
- Growth Rate (U2OS; 24 h, replicate number 2): 0.77
- Growth Rate (Fibroblast; 0 h, replicate number 1): -0.99
- Growth Rate (Fibroblast; 6 h, replicate number 2): 0.95
- Growth Rate (Fibroblast; 18 h, replicate number 2): 1
- Growth Rate (Fibroblast; 24 h, replicate number 1): 0.92
- Growth Rate (Fibroblast; 24 h, replicate number 2): 0.99

Structure (SMILES): Cl.Cl.Fc1ccc([C@@H]2CCNC[C@H]2COc2ccc3c(c2)OCO3)cc1.Fc1ccc([C@@H]2CCNC[C@H]2COc2ccc3c(c2)OCO3)cc1.O [PAROXETINE HYDROCHLORIDE]
- Growth Rate (HEK-293T; 6 h, replicate number 1): 0.25
- Growth Rate (HEK-293T; 24 h, replicate number 2): 0.86
- Growth Rate (U2OS; 0 h, replicate number 2): -1
- Growth Rate (U2OS; 6 h, replicate number 1): 0.82
- Growth Rate (U2OS; 6 h, replicate number 2): 0.89
- Growth Rate (U2OS; 12 h, replicate number 2): 0.84
- Growth Rate (U2OS; 18 h, replicate number 2): 0.89
- Growth Rate (U2OS; 24 h, replicate number 2): 0.98
- Growth Rate (Fibroblast; 6 h, replicate number 1): -0.26
- Growth Rate (Fibroblast; 6 h, replicate number 2): -1
- Growth Rate (Fibroblast; 12 h, replicate number 1): -1
- Growth Rate (Fibroblast; 12 h, replicate number 2): 0.54
- Growth Rate (Fibroblast; 18 h, replicate number 2): 0.59
- Growth Rate (Fibroblast; 24 h, replicate number 2): 0.62

Structure (SMILES): CN(C(=O)c1cnn2cccnc12)c1cc2c(cc1N1CCOCC1)C(=O)N(C[C@@H](F)C(C)(C)O)C2
- Growth Rate (HEK-293T; 0 h, replicate number 1): 0.82
- Growth Rate (HEK-293T; 0 h, replicate number 2): 0.66
- Growth Rate (HEK-293T; 6 h, replicate number 2): 0.77
- Growth Rate (HEK-293T; 12 h, replicate number 2): 0.85
- Growth Rate (HEK-293T; 18 h, replicate number 2): 1
- Growth Rate (HEK-293T; 24 h, replicate number 2): 0.92
- Growth Rate (U2OS; 0 h, replicate number 1): 0.99
- Growth Rate (U2OS; 6 h, replicate number 1): 0.54
- Growth Rate (U2OS; 6 h, replicate number 2): 0.75
- Growth Rate (U2OS; 12 h, replicate number 1): 0.98
- Growth Rate (U2OS; 12 h, replicate number 2): -0.78
- Growth Rate (U2OS; 18 h, replicate number 1): 0.75
- Growth Rate (U2OS; 18 h, replicate number 2): 0.92
- Growth Rate (U2OS; 24 h, replicate number 2): 0.85
- Growth Rate (Fibroblast; 0 h, replicate number 2): 0.71
- Growth Rate (Fibroblast; 6 h, replicate number 1): 0.38
- Growth Rate (Fibroblast; 6 h, replicate number 2): 0.95
- Growth Rate (Fibroblast; 12 h, replicate number 1): 0.84
- Growth Rate (Fibroblast; 12 h, replicate number 2): 0.89
- Growth Rate (Fibroblast; 18 h, replicate number 1): 0.7
- Growth Rate (Fibroblast; 24 h, replicate number 1): 0.82

Structure (SMILES): COc1cc(OC)c(NC(=O)Nc2cc(C)on2)cc1Cl
- Growth Rate (HEK-293T; 0 h, replicate number 1): 0.72
- Growth Rate (HEK-293T; 0 h, replicate number 2): 0.7
- Growth Rate (U2OS; 6 h, replicate number 2): 0.98
- Growth Rate (U2OS; 18 h, replicate number 1): 0.96
- Growth Rate (U2OS; 18 h, replicate number 2): 0.82
- Growth Rate (Fibroblast; 0 h, replicate number 2): -0.96
- Growth Rate (Fibroblast; 6 h, replicate number 1): 0.03
- Growth Rate (Fibroblast; 12 h, replicate number 1): -1

Structure (SMILES): COc1ccc(F)c(F)c1C(=O)c1cnc(NC2CCN(S(C)(=O)=O)CC2)nc1N [RG-547]
- Growth Rate (HEK-293T; 0 h, replicate number 1): -1
- Growth Rate (HEK-293T; 0 h, replicate number 2): 0.15
- Growth Rate (HEK-293T; 6 h, replicate number 1): 0.16
- Growth Rate (HEK-293T; 6 h, replicate number 2): -0.37
- Growth Rate (HEK-293T; 12 h, replicate number 1): -0.1
- Growth Rate (HEK-293T; 12 h, replicate number 2): -0.5
- Growth Rate (HEK-293T; 18 h, replicate number 1): -0.15
- Growth Rate (HEK-293T; 18 h, replicate number 2): -0.47
- Growth Rate (HEK-293T; 24 h, replicate number 1): -0.13
- Growth Rate (HEK-293T; 24 h, replicate number 2): -0.37
- Growth Rate (U2OS; 0 h, replicate number 1): -1
- Growth Rate (U2OS; 0 h, replicate number 2): 0.68
- Growth Rate (U2OS; 6 h, replicate number 2): 0.23
- Growth Rate (U2OS; 12 h, replicate number 1): 0.73
- Growth Rate (U2OS; 12 h, replicate number 2): 0.02
- Growth Rate (U2OS; 18 h, replicate number 1): 0.18
- Growth Rate (U2OS; 18 h, replicate number 2): 0.02
- Growth Rate (U2OS; 24 h, replicate number 1): 0.06
- Growth Rate (U2OS; 24 h, replicate number 2): -0.11
- Growth Rate (Fibroblast; 0 h, replicate number 1): -1
- Growth Rate (Fibroblast; 0 h, replicate number 2): 0.02
- Growth Rate (Fibroblast; 6 h, replicate number 2): 0.62
- Growth Rate (Fibroblast; 12 h, replicate number 2): 0.53
- Growth Rate (Fibroblast; 18 h, replicate number 1): 0.96
- Growth Rate (Fibroblast; 18 h, replicate number 2): 0.28
- Growth Rate (Fibroblast; 24 h, replicate number 1): 0.65
- Growth Rate (Fibroblast; 24 h, replicate number 2): 0.15

Structure (SMILES): c1ccc2c(-c3coc4cc(-c5ccc(N6CCNCC6)cc5)cnc34)ccnc2c1
- Growth Rate (HEK-293T; 0 h, replicate number 2): -1
- Growth Rate (HEK-293T; 6 h, replicate number 1): -0.57
- Growth Rate (HEK-293T; 6 h, replicate number 2): -0.5
- Growth Rate (HEK-293T; 12 h, replicate number 1): -0.52
- Growth Rate (HEK-293T; 12 h, replicate number 2): -0.56
- Growth Rate (HEK-293T; 18 h, replicate number 1): -0.42
- Growth Rate (HEK-293T; 18 h, replicate number 2): -0.43
- Growth Rate (HEK-293T; 24 h, replicate number 1): -0.3
- Growth Rate (HEK-293T; 24 h, replicate number 2): -0.33
- Growth Rate (U2OS; 0 h, replicate number 2): 0.9
- Growth Rate (U2OS; 6 h, replicate number 2): 0
- Growth Rate (U2OS; 12 h, replicate number 1): 0.59
- Growth Rate (U2OS; 12 h, replicate number 2): -0.36
- Growth Rate (U2OS; 18 h, replicate number 1): 0.14
- Growth Rate (U2OS; 18 h, replicate number 2): -0.38
- Growth Rate (U2OS; 24 h, replicate number 1): -0.05
- Growth Rate (U2OS; 24 h, replicate number 2): -0.46
- Growth Rate (Fibroblast; 0 h, replicate number 1): 0.87
- Growth Rate (Fibroblast; 12 h, replicate number 1): 0.93
- Growth Rate (Fibroblast; 12 h, replicate number 2): 0.61
- Growth Rate (Fibroblast; 18 h, replicate number 1): 0.29
- Growth Rate (Fibroblast; 18 h, replicate number 2): 0.28
- Growth Rate (Fibroblast; 24 h, replicate number 1): 0.1
- Growth Rate (Fibroblast; 24 h, replicate number 2): 0.11

Structure (SMILES): O=C(N[C@H]1CCCCC/C=C\C2C[C@@]2(C(=O)O)NC(=O)[C@@H]2C[C@@H](Oc3ccncc3)CN2C1=O)OC1CCCC1 (some centres not stated) [BI 1675]
- Growth Rate (HEK-293T; 0 h, replicate number 1): -0.15
- Growth Rate (HEK-293T; 0 h, replicate number 2): -0.95
- Growth Rate (HEK-293T; 6 h, replicate number 2): 0.64
- Growth Rate (HEK-293T; 12 h, replicate number 2): 0.89
- Growth Rate (HEK-293T; 24 h, replicate number 1): 0.94
- Growth Rate (HEK-293T; 24 h, replicate number 2): 0.89
- Growth Rate (U2OS; 0 h, replicate number 1): 0.43
- Growth Rate (U2OS; 6 h, replicate number 1): 0.77
- Growth Rate (U2OS; 12 h, replicate number 1): 0.68
- Growth Rate (U2OS; 12 h, replicate number 2): 0.99
- Growth Rate (U2OS; 18 h, replicate number 1): 0.77
- Growth Rate (U2OS; 24 h, replicate number 1): 0.89
- Growth Rate (Fibroblast; 6 h, replicate number 1): 0.23
- Growth Rate (Fibroblast; 6 h, replicate number 2): 0.39
- Growth Rate (Fibroblast; 12 h, replicate number 1): 0.84
- Growth Rate (Fibroblast; 18 h, replicate number 2): 0.91
- Growth Rate (Fibroblast; 24 h, replicate number 1): 0.99

Structure (SMILES): COc1cc(-c2cc([C@H](O)C3CC3)n3ncnc(N)c23)ccc1CO
- Growth Rate (HEK-293T; 6 h, replicate number 1): -0.7
- Growth Rate (HEK-293T; 6 h, replicate number 2): -0.8
- Growth Rate (HEK-293T; 12 h, replicate number 1): 0.16
- Growth Rate (HEK-293T; 12 h, replicate number 2): 0.26
- Growth Rate (HEK-293T; 18 h, replicate number 1): 0.62
- Growth Rate (HEK-293T; 18 h, replicate number 2): 0.76
- Growth Rate (HEK-293T; 24 h, replicate number 1): 0.74
- Growth Rate (HEK-293T; 24 h, replicate number 2): 0.87
- Growth Rate (U2OS; 12 h, replicate number 2): 0.85
- Growth Rate (U2OS; 18 h, replicate number 2): 0.89
- Growth Rate (U2OS; 24 h, replicate number 1): 0.8
- Growth Rate (U2OS; 24 h, replicate number 2): 0.91
- Growth Rate (Fibroblast; 0 h, replicate number 2): 0.98
- Growth Rate (Fibroblast; 24 h, replicate number 2): 0.98

Structure (SMILES): C=CC(=O)Nc1ccc(C(=O)Nc2n[nH]c3c2CN(C(=O)N[C@H](CN(C)C)c2ccccc2)C3(C)C)cc1
- Growth Rate (HEK-293T; 0 h, replicate number 1): -0.5
- Growth Rate (HEK-293T; 6 h, replicate number 1): 0.11
- Growth Rate (HEK-293T; 6 h, replicate number 2): -0.51
- Growth Rate (HEK-293T; 12 h, replicate number 1): 0.02
- Growth Rate (HEK-293T; 12 h, replicate number 2): -0.3
- Growth Rate (HEK-293T; 18 h, replicate number 1): 0.02
- Growth Rate (HEK-293T; 18 h, replicate number 2): -0.27
- Growth Rate (HEK-293T; 24 h, replicate number 1): 0.03
- Growth Rate (HEK-293T; 24 h, replicate number 2): -0.16
- Growth Rate (U2OS; 0 h, replicate number 1): -1
- Growth Rate (U2OS; 6 h, replicate number 2): 1
- Growth Rate (U2OS; 12 h, replicate number 2): -0.41
- Growth Rate (U2OS; 18 h, replicate number 1): 0.84
- Growth Rate (U2OS; 18 h, replicate number 2): 0.97
- Growth Rate (U2OS; 24 h, replicate number 1): 0.76
- Growth Rate (Fibroblast; 0 h, replicate number 2): -0.72
- Growth Rate (Fibroblast; 6 h, replicate number 2): 0.71
- Growth Rate (Fibroblast; 12 h, replicate number 1): 0.56
- Growth Rate (Fibroblast; 12 h, replicate number 2): 0.45
- Growth Rate (Fibroblast; 18 h, replicate number 1): 0.18
- Growth Rate (Fibroblast; 18 h, replicate number 2): 0.06
- Growth Rate (Fibroblast; 24 h, replicate number 1): 0.19
- Growth Rate (Fibroblast; 24 h, replicate number 2): -0.02
